Data reported in US9012483B2, “Use of L-Histidine and derivatives thereof” (priority 2011, dated 2015).
“Also recorded” adds a separate entry of the source. Like-named read-outs stand apart in the source and are kept apart here. Marks after values point to notes of the source that are not given here. Each block holds one compound with its values, some of them ahead of it.

Columns and labels:
[1] = Pharmacokinetics of histidine in plasma after oral administration; type: in vivo, CD(SD)IGS BR rat; details: for Tmax / AUC(0-inf) / Cmax: male, CD(SD)IGS BR; for Tmax / AUC(0-inf) / Cmax / t1/2λz: rat plasma; for total plasma clearance: rat
Description: Aliquots of L-Histidine dihydrochloride powder, accurately weighted, were transferred into 5 and 10 mL volumetric flasks. MilliQ-water was used to dissolve the powder. Standard solution was prepared to obtain CAL samples and CQ samples. The range of the stock standard solution was from 3.46 to 343 μg/mL. All standard solutions were stored at +4° C., in the dark: under these conditions they were considered stable for up to one month.
CAL samples were prepared by using the standard solution at the concentration of 3.46, 34.3, 68.6, 173 and 343 μg/mL and QC samples by using the standard solution at the concentration of 14.3, 67.1, 143 and 268 μg/mL.
CAL and QC samples were prepared by mixing 10 μL of Histidine standard solution with […] of blank rat plasma.
(§1) To these samples 20 μL of trichloroacetic acid (16% w/v) were added to precipitate the plasma proteins. The tubes were vortexed for few seconds and centrifuged for 10 min at 2000 g at room temperature; to 90 μL of the clear supernatant 45 μL of a soaked solution of Sodium carbonate (200 mM) and 90 μL of derivatizing solution (4 mg/mL of Dansyl chloride) were added. The tubes were vortexed for few seconds and incubated under stirring for 30 minutes at 60° C. Five microliters of Methylamine Hydrochloride were added and after cooling for 15 minutes, ten microliters of the sample were injected into the HPLC equipment.
as §1, with “Test plasma samples (S) were prepared by adding 10 μL of Milli-Q water to 90 μL of undiluted plasma or 90 μL of plasma suitably diluted with blank plasma (if sample volume was not enough). To” for “To”, “equipment. All plasma samples collected during the study were stored at −20° C. until analysis.” for “equipment.”
• Species and strain: CD(SD)IGS BR rat • sex of animals: males • Weight and age at treatment: 306-376 g (10-14 weeks old) • Supplier: Charles River Laboratories, Calco (LC), Italy
(§2) Rats were used to determine the pharmacokinetic parameters after administration of three different histidine doses (100, 500 and 1000 mg/kg, three animals for each group).
Plasma concentrations of Histidine as a function of time after injection C(t), were analyzed by non-parametric methods using the computer program WIN-NONLIN 4.0.1. For the tested doses, a non-compartmental analysis was performed using the average plasma concentrations from 3 animals for each time point (except when indicated). For Cmax (peak plasma concentration) and the corresponding tmax ([…]) the observed values were reported. The terminal phase elimination rate constant (λz) was estimated by log-linear regression of those data points visually assessed to be in the terminal phase of the profile. At least three terminal plasma concentrations were used for estimating λz. The terminal elimination half life (t ½ λz, time required for a drug to decline to half of its original plasma value) was calculated as t ½ λz=In 2/λz. Area under the plasma concentration-time curve to the last observable plasma concentration (AUC(0 to t)) was calculated from observed data using the logarithmic trapezoidal method. Total area under the plasma concentration-time curve from zero to infinity (AUC(0 to ∞)) was estimated by AUC(0 to ∞) =AUC(0 to t) +ct/λz, where ct is the predicted concentration at the last quantified time point. AUC defines extent of drug exposure.

[2] = Clinical signs in the pharmacokinetic study after oral histidine; type: in vivo, CD(SD)IGS BR rat; details: rat, up to 1000 mg/kg
Description: as §2

[3] = test system: Gd(DTPA-BMA) and Gd(DTPA) complexes with Cu(II); assay: Kinetics of transmetallation of Gd(DTPA) and Gd(DTPA-BMA) with Cu(II) in the presence of citrate and histidine (spectrophotometry, 300 nm); type: physicochemical; details: [GdL]=2.0 mM, [Cu]=0.1 mM, [cit]=2.0 mM, [His]=0.2-0.8 mM, pH 7.0, 25° C., 0.15 M NaCl
Description: In order to have some clues on the kinetics of a possible transmetallation reactions in the presence of citrate (an important counter-ion present in plasma and found to be highly interactive with Gd^3+) and increasing amounts of histidine, the rates of the following reactions have been studied: GdL+Cu^2++His+cit⇄CuL+Gd(cit)+His (1)
In the experiment, the concentration used for Gd^3+ complex (GdL), citrate and Cu^2+ were: 2.0, 2.0 and 0.1 mM, respectively, while the concentration of His was varied (0.2, 0.4, 0.6 and 0.8 mM).
The progress of the exchange reactions (1) has been studied by spectrophotometry (Cary 1E spectrophotometer) at 300 nm, with the use of 1.0 cm quartz cell at 25° C. in 0.15 M NaCl in the pH range 6-8. […]

[4] = test system: Gd(DTPA-BMA); assay: Dissociation of Gd(DTPA-BMA) in artificial plasma, relaxivity at 20 MHz; type: physicochemical; details: pH 7.5, 37° C.
[5] = for changes in Gd^3+ content in liver and spleen: versus group 1; for % ID in femour, mean / Gadolinium content in femour, mean: p < 0.01 vs group 1; for Gadolinium content in skin, mean: p < 0.05 vs group 1
Description: L-Histidine was orally administered by gavage, while Omniscan® was intravenously administered.
On the day of scheduled sacrifice, animals were anesthetized with an inhalation agent, sevoflurane, at an respiratory concentration of 3% in induction and 1-2% in maintenance and bled after collection of blood from the abdominal aorta. After exsanguination, liver, spleen, femur and skin of all animals were excised, weighed and prepared for ICP-MS determination of gadolinium content. Sample digestion (spleen and femur) was performed by a microwave system (MARS-5 CEM Corporation).
Liver and skin samples were freeze-dried with a lyophilizer (Alpha-1-2LD Plus, CHRIST) after being frozen at −80° C. for at least 1 h. After drying, dehydrated livers were weighed and then ground in a mortar.
Gadolinium content in organs was reported as μg of Gd.

[6] = rat, oral histidine 4.38 mmol/kg and iv Omniscan 1 mmol/kg
[7] = cited from earlier work
[8] = cited from earlier work; remark: listed apart in the source
[9] = test system: Cu(His)2; assay: Exchange reaction between Gd(DTPA-BMA) and Cu(His)2 without and with citrate (UV spectrum); type: physicochemical; details: Cu(His)2 0.2 mM, Gd(DTPA-BMA) 2.0 mM, pH 6.5, 25° C., 0.15 M NaCl
Description: FIG. 3. The UV spectrum of Cu(His)2 in the presence of Gd(DTPA-BMA) excess (Panel A) and in the presence of citrate and Gd(DTPA-BMA) excess (Panel B). (Cu(His)2=0.2 mM, Gd(DTPA-BMA)=2.0 mM) (A). (Cu(His)2=0.2 mM, Gd(DTPA-BMA)=2.0 mM, Citrate=2.0 mM) (B). pH=6.5, 25° C., 0.15 M NaCl.
It is possible to conclude that in body fluids transmetallation reactions may take place between the DTPA-derivative Gd^3+ complexes and endogenous metal ions, like Cu^2+ and Zn^2+. The possibility of the transmetallation reactions can be predicted on the basis of the stability constants of complexes formed between the most important endogenous metals and ligands. The stability constants have been determined for the Gd^3+, Cu^2+ and Zn^2+ complexes of the DTPA, DTPA-BMA, citrate and histidine ligands. […] The species distribution calculations have been experimentally verified by following the exchange reactions between Gd(DTPA-BMA) and Cu(His)2 in the absence and presence of citrate.

[10] = group 2, histidine pretreatment at 30 min
[11] = group 2: oral histidine 4.38 mmol/kg 30 min before Omniscan 1 mmol/kg iv, 24 h
[12] = group 2: oral histidine 4.38 mmol/kg 30 min before Omniscan 1 mmol/kg iv, 24 h, listed as Histidine
[13] = group 2: oral histidine 4.38 mmol/kg 30 min before Omniscan 1 mmol/kg iv, 24 h, listed as histidine
[14] = histidine 30 min before Omniscan versus no histidine pretreatment

Structure (SMILES): N[C@@H](Cc1c[nH]cn1)C(=O)O [L-Histidine]
Tmax ([1]; 100 mg/kg): 0.5 h
Tmax ([1]; 1000 mg/kg): 0.5 h
AUC(0-inf) ([1]; Histidine 100 mg/kg): 550 µg·h/mL
Cmax ([1]; Histidine 100 mg/kg (0.438 mmol/kg)): 9000 ng/mL
AUC(0-inf) ([1]; Histidine 500 mg/kg): 630 µg·h/mL
Tmax ([1]; Histidine 500 mg/kg): 1 h
Cmax ([1]; Histidine 500 mg/kg (2.192 mmol/kg)): 20900 ng/mL
AUC(0-inf) ([1]; Histidine 1000 mg/kg): 390 µg·h/mL
Cmax ([1]; Histidine 1000 mg/kg (4.38 mmol/kg)): 36000 ng/mL
t1/2λz ([1]; Histidine 100 mg/kg (Table A)): 51 h
t1/2λz ([1]; Histidine 500 mg/kg (Table A)): 47 h
t1/2λz ([1]; Histidine 1000 mg/kg (Table A)): 13 h
total plasma clearance ([1]; 100 mg/kg): 3 mL/min/kg
total plasma clearance ([1]; 500 mg/kg): 13.2 mL/min/kg
total plasma clearance ([1]; 1000 mg/kg): 42.7 mL/min/kg
clinical signs [2]: No clinical signs were observed
extent (conversion) of the transmetallation reactions, CuL formed ([3]; listed as Histidine): decrease
rates of the transmetallation reactions ([3]; listed as Histidine): decrease
extent (conversion) of the transmetallation reactions, CuL formed ([3]; listed as histidine): significantly decrease; also recorded: decrease with increasing concentration of histidine
rates of the transmetallation reactions ([3]; listed as histidine): significantly decrease; also recorded: decrease with increasing concentration of histidine
effect on the increase of relaxivity / extent of dissociation of Gd(DTPA-BMA) ([4]; histidine 0.5 mM and 1.0 mM added to artificial plasma with 1.0 mM Gd(DTPA-BMA)): concentration dependent drop in the increase of the relaxivity values; also recorded: significantly decreases
% ID in liver, spleen and skin versus group 1 [5, 10]: not significantly different
changes in Gd^3+ content in liver and spleen [5, 10]: no significant changes
% ID in liver, mean [5, 11]: 0.1094 % ID
% ID in skin, mean [5, 11]: 0.0067 % ID
% ID in spleen, mean [5, 11]: 0.00478 % ID
Gadolinium content in liver, mean [5, 11]: 20.7 nmol/g of tissue
Gadolinium content in spleen, mean [5, 11]: 20.0 nmol/g of tissue
% ID in femour, mean [5, 12]: 0.00166** % ID
Gadolinium content in femour, mean [5, 12]: 6.90** nmol/g of tissue
% ID in femour, mean [5, 13]: 0.00166 % ID
Gadolinium content in femour, mean [5, 13]: 6.90 nmol/g of tissue
Gadolinium content in skin, mean [5, 12]: 11.25* nmol/g of tissue
Gadolinium content in skin, mean [5, 13]: 11.25 nmol/g of tissue
changes in Gd^3+ content in liver and spleen ([5]; group 3, histidine pretreatment at 1 h): no significant changes
decrease in Gd^3+ content in femur (nmol/g tissue) [5, 14]: about 40%
decrease of % ID in femour [5, 14]: about 40%
effect on Gd^3+ accumulation ([5]; histidine treatment 60 min before Omniscan administration): didn't show, in this model, any effect
mortality and clinical signs [6]: No mortalities nor changes in clinical signs
time to peak levels after oral administration ([7]; L-Histidine in the salt form (HCl), oral route): 30 to 45 min
AUC(0 to ∞) ([7]; healthy volunteers, single oral administration of Histidine at 100 mg/kg): 477 µg·h/mL
serum parameters including protein bound zinc, serum and urinary zinc levels ([8]; human subjects, L-histidine up to 4 g/day, 15-days treatment): not shown to be grossly altered
adverse effects ([8]; humans, oral, up to 4-6 g/day for several days): neither important adverse effects nor minor inconveniences

changes of the UV spectrum of Cu(His)2 (transmetallation) ([9]; no citrate): no changes
Structure (SMILES): CNC(=O)CN(CCN(CCN(CC(=O)[O-])CC(=O)NC)CC(=O)[O-])CC(=O)[O-].[Gd+3] [Omniscan ®, Gadodiamide]
relaxivity values as a function of time (dissociation of the complex) ([4]; 1.0 mM Gd(DTPA-BMA) in artificial plasma, no added histidine): relaxivity values increase as a function of time
changes of the UV spectrum of Cu(His)2 (transmetallation) ([9]; citrate 2.0 mM): the transmetallation reaction takes place
